Results: patent publication US11752122B2 (OKLAHOMA MEDICAL RESEARCH FOUNDATION, priority 2018, dated 2023)
Like-named read-outs stand apart in the source and are kept apart here.

Columns and labels:
[1] = cited from earlier work
[2] = cited from earlier work; remark: listed apart in the source
TGF-β1 = biological target: T1, TGF-β1 (Mus musculus, UniProt P04202); test: Shear-dependent TGF-β1 activation in platelet-rich plasma from NAC-treated mice (ELISA); assay type: in vivo; details: PRP from NAC-treated vs control mice, shear force of 1,800 s^−1 for 2 hours, ELISA (FIG. 4A)
T1 construct: Active TGF-β1 levels in platelet-rich plasma from NAC-treated (n=6) and -untreated (n=8) mice after in vitro stirring; from tissue; host or cells: mouse platelet-rich plasma (blood)
T1 sequence (P04202 30-278 limits assumed): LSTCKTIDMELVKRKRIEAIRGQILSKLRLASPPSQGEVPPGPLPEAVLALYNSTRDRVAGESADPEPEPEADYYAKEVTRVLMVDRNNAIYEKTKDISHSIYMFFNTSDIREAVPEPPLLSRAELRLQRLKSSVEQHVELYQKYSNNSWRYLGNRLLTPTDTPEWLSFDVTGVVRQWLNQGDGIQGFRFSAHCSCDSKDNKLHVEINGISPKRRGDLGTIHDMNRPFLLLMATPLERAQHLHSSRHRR
T1 sequence (P04202 279-390 limits assumed): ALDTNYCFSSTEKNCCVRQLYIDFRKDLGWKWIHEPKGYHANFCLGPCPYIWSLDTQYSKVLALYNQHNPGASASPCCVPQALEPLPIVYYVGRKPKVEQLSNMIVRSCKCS
T1 sequence (Q8CG19 24-1712 partner): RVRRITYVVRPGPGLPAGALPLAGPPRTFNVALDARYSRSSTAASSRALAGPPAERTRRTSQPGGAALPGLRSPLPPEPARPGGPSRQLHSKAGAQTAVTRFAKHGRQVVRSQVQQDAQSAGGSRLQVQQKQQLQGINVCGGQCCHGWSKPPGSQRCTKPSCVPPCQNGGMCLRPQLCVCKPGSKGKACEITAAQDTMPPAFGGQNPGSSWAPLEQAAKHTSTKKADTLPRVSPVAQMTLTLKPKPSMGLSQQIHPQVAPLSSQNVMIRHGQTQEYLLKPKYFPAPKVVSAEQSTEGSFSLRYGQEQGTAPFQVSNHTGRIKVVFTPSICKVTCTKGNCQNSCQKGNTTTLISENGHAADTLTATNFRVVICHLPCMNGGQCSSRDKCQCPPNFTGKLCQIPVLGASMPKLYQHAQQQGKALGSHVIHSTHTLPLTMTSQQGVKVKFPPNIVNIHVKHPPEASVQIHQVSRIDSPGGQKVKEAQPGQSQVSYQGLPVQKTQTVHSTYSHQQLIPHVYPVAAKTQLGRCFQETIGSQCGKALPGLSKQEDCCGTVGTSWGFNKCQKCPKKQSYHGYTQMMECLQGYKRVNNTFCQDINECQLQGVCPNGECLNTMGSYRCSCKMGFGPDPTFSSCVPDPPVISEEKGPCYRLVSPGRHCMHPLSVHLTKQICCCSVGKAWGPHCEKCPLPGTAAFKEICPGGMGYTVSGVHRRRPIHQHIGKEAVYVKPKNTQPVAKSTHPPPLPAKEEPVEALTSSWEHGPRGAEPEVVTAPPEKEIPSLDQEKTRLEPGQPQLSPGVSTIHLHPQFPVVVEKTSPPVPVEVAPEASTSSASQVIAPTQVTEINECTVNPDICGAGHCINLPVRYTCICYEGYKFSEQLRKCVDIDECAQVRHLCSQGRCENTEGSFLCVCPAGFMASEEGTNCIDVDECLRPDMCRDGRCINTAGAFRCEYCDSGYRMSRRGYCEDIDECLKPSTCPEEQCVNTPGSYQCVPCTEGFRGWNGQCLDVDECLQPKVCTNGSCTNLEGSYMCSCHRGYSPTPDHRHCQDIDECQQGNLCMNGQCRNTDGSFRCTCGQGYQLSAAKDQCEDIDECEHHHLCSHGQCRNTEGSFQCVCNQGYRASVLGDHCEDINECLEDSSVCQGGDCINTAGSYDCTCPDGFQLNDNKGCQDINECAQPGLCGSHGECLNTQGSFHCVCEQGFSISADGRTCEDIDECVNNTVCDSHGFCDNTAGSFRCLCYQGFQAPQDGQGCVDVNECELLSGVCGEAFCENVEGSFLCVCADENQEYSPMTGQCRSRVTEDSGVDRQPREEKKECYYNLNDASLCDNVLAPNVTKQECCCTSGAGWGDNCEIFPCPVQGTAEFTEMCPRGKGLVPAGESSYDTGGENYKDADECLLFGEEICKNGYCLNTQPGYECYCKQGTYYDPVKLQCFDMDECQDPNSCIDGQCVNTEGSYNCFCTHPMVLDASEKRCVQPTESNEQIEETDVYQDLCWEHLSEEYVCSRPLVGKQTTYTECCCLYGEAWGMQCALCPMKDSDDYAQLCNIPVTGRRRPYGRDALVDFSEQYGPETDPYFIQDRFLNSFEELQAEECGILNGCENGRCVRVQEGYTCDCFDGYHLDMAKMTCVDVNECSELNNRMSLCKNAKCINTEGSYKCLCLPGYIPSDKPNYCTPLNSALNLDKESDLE

CC(=O)N[C@@H](CS)C(=O)O [NAC, N-acetylcysteine]
solubility ([1]; alcohol): soluble | solubility ([1]; chloroform): practically insoluble | solubility ([1]; ether): practically insoluble | solubility ([1]; water): soluble | Urine excretion ([2]; in vivo): 22-30% | metabolism ([2]; liver): extensively liver metabolized | TGF-β1 activation (active TGF-β1 levels) in PRP (TGF-β1): much lower
